Eleven molecules from PubChem BioAssay (NCI) can be followed below.

Test systems include MDA-N; PC-3 prostate; MCF7 breast; TK-10 renal; ACHN renal; DU-145 prostate; HCC-2998 colon; M14 melanoma; T-47D breast; CCRF-CEM leukemia; NCI-H23 lung; MDA-MB-231 breast; SR leukemia; SF-539 CNS; MDA-MB-435; OVCAR-4 ovarian; LOX IMVI melanoma; NCI-H522 lung; SK-MEL-2 melanoma.
Common to all, as to experiment: growth of human tumour cells (NCI), 48 h

Each structure is given as a SMILES string.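 48-hour exposure; five concentrations; linearly interpolated endpoints. TGI: total growth inhibition.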

For `CC(=O)N1CN2C(=O)CCC2c2ccccc21` (stereo not drawn), the TGI in the experiment on MDA-N, in the experiment on PC-3 prostate, in the experiment on MCF7 breast, with TK-10 renal, in the experiment on ACHN renal and in the experiment with DU-145 prostate was > 100 µM each time. The TGI in the experiment on HCC-2998 colon, with M14 melanoma, in the experiment with T-47D breast, with CCRF-CEM leukemia, with NCI-H23 lung and in the experiment on MDA-MB-231 breast was > 100 µM in each case. The TGI with SR leukemia was 97.9 µM; with SF-539 CNS, > 100 µM; in the experiment with MDA-MB-435, > 100 µM; in the experiment on OVCAR-4 ovarian, > 100 µM; in the experiment on LOX IMVI melanoma it was > 100 µM; with NCI-H522 lung it was > 100 µM. The TGI in the experiment on SK-MEL-2 melanoma is > 100 µM.
As to `Cc1nc2ccc(Cl)cc2c2c1CCS2`, the TGI in the experiment on MDA-N, in the experiment with PC-3 prostate, in the experiment with MCF7 breast, with TK-10 renal, in the experiment with ACHN renal and with DU-145 prostate was > 100 µM each time. For the same molecule, the TGI with HCC-2998 colon, in the experiment on M14 melanoma, in the experiment with T-47D breast, in the experiment on CCRF-CEM leukemia, in the experiment on NCI-H23 lung and in the experiment on MDA-MB-231 breast was > 100 µM in each case. In addition, the TGI in the experiment on SR leukemia was 86.6 µM; with SF-539 CNS, > 100 µM; with MDA-MB-435, > 100 µM; in the experiment on OVCAR-4 ovarian it was > 100 µM; with LOX IMVI melanoma, > 100 µM; in the experiment with NCI-H522 lung, > 100 µM. Further, the TGI in the experiment on SK-MEL-2 melanoma was > 100 µM.
On to `O=C(c1ccco1)N(Cc1ccco1)C(=S)Nc1ccccc1`, for which the TGI is 38.1 µM with MDA-N; > 100 µM in the experiment on PC-3 prostate; 49 µM in the experiment on MCF7 breast; > 77.4 µM with TK-10 renal; 40.8 µM in the experiment with ACHN renal; > 100 µM with DU-145 prostate. For the same molecule, the TGI was determined as 98.1 µM with HCC-2998 colon; 28.5 µM with M14 melanoma; 54.1 µM with T-47D breast; 18.7 µM in the experiment on CCRF-CEM leukemia; 38.1 µM with NCI-H23 lung; 41.1 µM in the experiment with MDA-MB-231 breast. For the same molecule, the TGI in the experiment on SR leukemia came out at 13.2 µM; with SF-539 CNS, 15.4 µM; with MDA-MB-435 it was 30.2 µM; in the experiment on OVCAR-4 ovarian it was 68.1 µM; in the experiment with LOX IMVI melanoma it was 27.1 µM; in the experiment on NCI-H522 lung, 37.7 µM. The TGI in the experiment on SK-MEL-2 melanoma worked out at 42.9 µM.
With `CC(=O)Nc1ccc(N=C2C(c3ccccc3)=C(SC3=C(c4ccccc4)C(=Nc4ccc(NC(C)=O)cc4)c4ccccc43)c3ccccc32)cc1`, the TGI in the experiment on MDA-N, with PC-3 prostate, in the experiment on MCF7 breast, in the experiment with TK-10 renal, with ACHN renal and in the experiment with DU-145 prostate was > 100 µM throughout. The TGI is > 100 µM in the experiment with HCC-2998 colon; > 100 µM in the experiment with M14 melanoma; 48.4 µM in the experiment with T-47D breast; > 100 µM with CCRF-CEM leukemia; 99.8 µM with NCI-H23 lung; > 100 µM in the experiment on MDA-MB-231 breast. Besides, the TGI is > 100 µM in the experiment with SR leukemia; 28.5 µM in the experiment on SF-539 CNS; > 100 µM in the experiment with MDA-MB-435; > 100 µM with OVCAR-4 ovarian; > 100 µM with LOX IMVI melanoma; 97.7 µM with NCI-H522 lung. Further, the TGI in the experiment on SK-MEL-2 melanoma was > 100 µM.
`S=C1Cc2c(-c3ccc(Cl)cc3)cc(-c3ccccc3)nc2-c2ccccc2N1`: the TGI in the experiment with MDA-N was 30.4 µM; with PC-3 prostate it was 44 µM; in the experiment on MCF7 breast, > 100 µM; with TK-10 renal it was 30.2 µM; in the experiment with ACHN renal it was 27.1 µM; in the experiment on DU-145 prostate it was > 100 µM. In addition, the TGI in the experiment with HCC-2998 colon is > 100 µM; in the experiment on M14 melanoma it was 49 µM; in the experiment with T-47D breast it was > 100 µM; in the experiment with CCRF-CEM leukemia, > 100 µM; in the experiment with NCI-H23 lung, 27.2 µM; in the experiment on MDA-MB-231 breast, 23.8 µM. Further, the TGI with SR leukemia was > 100 µM; with SF-539 CNS it was 16.2 µM; in the experiment with MDA-MB-435 it was 46 µM; in the experiment with OVCAR-4 ovarian, 18 µM; in the experiment with LOX IMVI melanoma, 35.2 µM; in the experiment on NCI-H522 lung, 40.2 µM. In the experiment on SK-MEL-2 melanoma, the TGI stood at 37.6 µM.
With `C#CCn1ncc2c(SC)ncnc21`, the TGI with MDA-N, in the experiment with PC-3 prostate, with MCF7 breast, in the experiment on TK-10 renal, in the experiment on ACHN renal and with DU-145 prostate was > 100 µM each time. Also, the TGI in the experiment with HCC-2998 colon, with M14 melanoma, in the experiment on T-47D breast, in the experiment on CCRF-CEM leukemia, in the experiment on NCI-H23 lung and in the experiment with MDA-MB-231 breast was > 100 µM in each case. For the same molecule, the TGI with SR leukemia, with SF-539 CNS, in the experiment with MDA-MB-435, in the experiment on OVCAR-4 ovarian, in the experiment on LOX IMVI melanoma and in the experiment with NCI-H522 lung was > 100 µM throughout. In addition, the TGI with SK-MEL-2 melanoma was > 100 µM.
For `CC(=O)c1c(SCCN2CCCC2)n(-c2ccccc2)c(=S)n(-c2ccccc2)c1=O`, the TGI in the experiment with MDA-N is 19.9 µM; in the experiment on PC-3 prostate, 10.8 µM; in the experiment with MCF7 breast, 3.01 µM; with TK-10 renal it was 8.5 µM; with ACHN renal, 3.46 µM; in the experiment with DU-145 prostate, 8.85 µM. For the same molecule, the TGI came out at 11.9 µM in the experiment on HCC-2998 colon; 6.63 µM with M14 melanoma; 5.42 µM in the experiment with T-47D breast; 4.01 µM with CCRF-CEM leukemia; 37.4 µM in the experiment on NCI-H23 lung; 23.4 µM with MDA-MB-231 breast. In addition, the TGI is > 100 µM in the experiment on SR leukemia; 12.5 µM in the experiment on SF-539 CNS; 13.2 µM in the experiment with MDA-MB-435; > 90.7 µM in the experiment on OVCAR-4 ovarian; 9.04 µM in the experiment on LOX IMVI melanoma; 8.31 µM with NCI-H522 lung. The same molecule registered a TGI in the experiment on SK-MEL-2 melanoma of 50.8 µM.
For `COc1cc(-c2cc(=O)c3c(OC)c(OC)c(OC)cc3o2)c(OC)c(OC)c1OC`, the TGI in the experiment on MDA-N, in the experiment on PC-3 prostate, in the experiment on MCF7 breast, with TK-10 renal, with ACHN renal and in the experiment on DU-145 prostate was > 75 µM in each case. In addition, the TGI with HCC-2998 colon, with M14 melanoma, in the experiment with T-47D breast, in the experiment with CCRF-CEM leukemia, with NCI-H23 lung and with MDA-MB-231 breast was > 75 µM each time. For the same molecule, the TGI in the experiment on SR leukemia, with SF-539 CNS, in the experiment on MDA-MB-435, with OVCAR-4 ovarian, in the experiment on LOX IMVI melanoma and in the experiment with NCI-H522 lung was > 75 µM in each case. Moreover, the TGI with SK-MEL-2 melanoma is > 75 µM.
With `COC(=O)C1CCOC(C)N1C(=O)OC(C)(C)C` (stereo not drawn), the TGI with MDA-N, in the experiment on PC-3 prostate, in the experiment on MCF7 breast, in the experiment on TK-10 renal, in the experiment with ACHN renal and in the experiment on DU-145 prostate was > 100 µM each time. Further, the TGI with HCC-2998 colon, with M14 melanoma, in the experiment on T-47D breast, in the experiment with CCRF-CEM leukemia, in the experiment with NCI-H23 lung and with MDA-MB-231 breast was > 100 µM each time. In addition, the TGI in the experiment with SR leukemia, with SF-539 CNS, in the experiment with MDA-MB-435, in the experiment on OVCAR-4 ovarian, with LOX IMVI melanoma and with NCI-H522 lung was > 100 µM each time. Moreover, the TGI with SK-MEL-2 melanoma was > 100 µM.
For `Cn1c(N)c(C(N)=O)[nH]c1=S`, the TGI in the experiment on MDA-N, in the experiment with PC-3 prostate, with MCF7 breast, in the experiment with TK-10 renal, with ACHN renal and with DU-145 prostate was > 100 µM each time. Moreover, the TGI with HCC-2998 colon, in the experiment with M14 melanoma, in the experiment on T-47D breast, in the experiment with CCRF-CEM leukemia, in the experiment with NCI-H23 lung and in the experiment on MDA-MB-231 breast was > 100 µM throughout. Besides, the TGI in the experiment on SR leukemia, with SF-539 CNS, in the experiment with MDA-MB-435, with OVCAR-4 ovarian, in the experiment with LOX IMVI melanoma and in the experiment on NCI-H522 lung was > 100 µM throughout. In the experiment on SK-MEL-2 melanoma, the TGI is > 100 µM.
With `COc1ccc(NC(=O)CC(=O)N2N=C(c3ccccc3)C(N=Nc3ccc(S(=O)(=O)CCOS(=O)(=O)O)cc3)C2=O)cc1` (stereo not drawn), the TGI in the experiment on MDA-N, in the experiment with PC-3 prostate, in the experiment on MCF7 breast, in the experiment with TK-10 renal, with ACHN renal and in the experiment on DU-145 prostate was > 100 µM throughout. Also, the TGI in the experiment with HCC-2998 colon, with M14 melanoma, with T-47D breast, in the experiment on CCRF-CEM leukemia, with NCI-H23 lung and with MDA-MB-231 breast was > 100 µM each time. For the same molecule, the TGI with SR leukemia, in the experiment on SF-539 CNS, with MDA-MB-435, in the experiment with LOX IMVI melanoma, in the experiment with NCI-H522 lung and in the experiment on SK-MEL-2 melanoma was > 100 µM throughout.
